Values after ≈ are worked out from the molar mass of the structure shown. Like-named read-outs stand apart in the source and are kept apart here. Starred links: 1 amine or outer side, 2 acyl side, 3 side chain; linkers in the order of their positions; H or OH if unused. Non-standard residues stand in square brackets, D forms with d. Residues, ends and D or L forms follow the SMILES beside them. *: point of attachment. NH(3-CONH2-4-OMe-phenyl) = COc1ccc(N*)cc1C(N)=O; 3Abz(6-OMe) = COc1ccc(N[*:1])cc1C(=O)[*:2]; dOrn = NCCC[C@@H](N)C(=O)O
Tests used:
fondaparinux = assay: FXa amidolytic assay (Example 10), fondaparinux; conditions: read-out: Fondap FXa EC50; fondaparinux 0.02 μg/mL; human antithrombin, bovine Factor Xa
Method: (§2) Two μl of test agent are added (range between 0.01 and 23 ug/ml) and incubated for 5 minutes at 23° C. Bovine Factor Xa was added to a final concentration of 0.636 nkat/mL and incubated for a further 10 minutes at 23° C.

enoxaparin = assay: FXa amidolytic assay (Example 10), enoxaparin; conditions: read-out: Enox FXa EC50; enoxaparin 0.1 ug/ml; human antithrombin, bovine Factor Xa
Method: as §2

[1] = tested on: isolated human erythrocytes; assay: cells; assay type: cell-based; conditions: human RBC, 1 hour at 37° C.; for EC50: Homo sapiens, Erythrocyte, 1 h, read-out: Hemolysis EC50
Method: Hemolysis assay: Cytotoxicity was also evaluated in a hemolysis assay using isolated human erythrocytes. Pooled whole human blood was centrifuged to separate the red blood cells (RBC). The isolated RBCs were rinsed and diluted in Tris-buffered saline (TBS buffer, pH 7.4) to obtain a 0.22% RBC stock suspension. Serial two-fold dilutions of test agent were assayed over a concentration range of 1000 to 0.48 μg/ml with shaking for 1 hour at 37° C. At the conclusion of the incubation time, samples were centrifuged and 30 μl of the supernatant was added to 100 μl H2O. OD405 measurements were read for hemoglobin concentration. The bee venom peptide melittin was used as a positive control. EC50 values were determined using a four parameter logistic equation: Y=Bottom+(Top-Bottom)/(1+10̂((LogEC50-X)*HillSlope)).

tinzaparin = assay: FXa amidolytic assay (Example 10), tinzaparin; conditions: read-out: Tinzap FXa EC50; tinzaparin 0.1 ug/ml; human antithrombin, bovine Factor Xa
Method: as §2

Unfractionated heparin = assay: aPTT clotting assay, UFH 0.4 U/mL in plasma (Example 10); assay type: biochemical; conditions: unfractionated heparin 0.4 U/mL in plasma; aPTT clotting
Method: (§1) aPTT clotting Assay: Unfractionated heparin was mixed with plasma at a final concentration of 0.4 U/mL (or concentration which increases aPTT time to between 120 and 300 seconds). […] The ACL Elite Hemostasis analyzer (Beckman Coulter™) was used to add aPTT reagent (HemosIL SynthASil) to supplemented plasma. Clotting was initiated by addition of CaCl2 and time to clot was recorded.

enoxaparin (ENOX) = assay: FXa chromogenic assay (absence of plasma), enoxaparin
[2] = tested on: unfractionated heparin (UFH); assay: aPTT clotting assay, UFH 0.2 U/mL in plasma (Example 7); assay type: biochemical
Method: as §1, with “Assay.” for “Assay:”, “0.2 U/mL.” for “0.4 U/mL (or concentration which increases aPTT time to between 120 and 300 seconds).”

fondaparinux (FONDAPX) = assay: FXa chromogenic assay (absence of plasma), fondaparinux
[3] = enoxaparin 0.1 μg/mL, absence of plasma
[4] = fondaparinux 0.02 μg/mL, absence of plasma

SMILES | ENOX (FXa) EC50 (enoxaparin (ENOX); [3]) [µg/mL] | UFH (aPTT) EC50 ([2]; UFH 0.2 U/mL in plasma) | FONDAPX (FXa) EC50 (fondaparinux (FONDAPX); [4]) | other results
COc1ccc(NC(=O)[C@H](CCCCN)NC(=O)c2cc(NC(=O)[C@H](CCCCN)NC(=O)c3cc(NC(=O)[C@H](CCCCN)NC(=O)c4cc(NC(=O)[C@@H](N)Cc5c[nH]c6ccccc56)ccc4OC)ccc3OC)ccc2OCC(=O)O)cc1C(=O)N[C@@H](Cc1c[nH]c2ccccc12)C(N)=O [Compound 334] |  |  |  | EC50 (fondaparinux): 224 nM; EC50 (enoxaparin): 249 nM; EC50 [1]: ~15 µg/mL (≈ 10.6 µM); EC50 (tinzaparin): 281 nM; EC50 (Unfractionated heparin): > 10000 nM
COc1ccc(NC(=O)[C@@H](CCCNC(=N)N)NC(=O)c2cc(NC(=O)[C@@H](CCCNC(=N)N)NC(=O)c3cc(NC(=O)[C@@H](CCCNC(=N)N)NC(=O)c4cc(NC(=O)[C@H](N)CCCNC(=N)N)ccc4OC)ccc3OC)ccc2OC)cc1C(=O)NCC(=O)O [Compound 278] |  |  |  | EC50 (fondaparinux): 408 nM; EC50 (enoxaparin): 150 nM; Hemolysis EC50 [1]: no significant decrease; EC50 (tinzaparin): 132 nM; EC50 (Unfractionated heparin): 1990 nM
COc1ccc(NC(=O)[C@@H](CCCNC(=N)N)NC(=O)c2cc(NC(=O)[C@@H](CCCNC(=N)N)NC(=O)c3cc(NC(=O)[C@@H](CCCNC(=N)N)NC(=O)c4cc(NC(=O)[C@H](N)CCCNC(=N)N)ccc4OC)ccc3OC)ccc2OC)cc1C(=O)N[C@H](Cc1c[nH]c2ccccc12)C(=O)O [Compound 303] |  |  |  | EC50 (fondaparinux): 146 nM; EC50 (enoxaparin): 192 nM; EC50 [1]: ~500 µg/mL (≈ 351 µM); EC50 (tinzaparin): 189 nM; EC50 (Unfractionated heparin): > 10000 nM
COC(=O)c1cc(NC(=O)[C@H](CCCCN)NC(=O)c2cc(NC(=O)[C@H](CCCCN)NC(=O)c3cc(NC(=O)[C@H](CCCCN)NC(=O)c4cc(NC(=O)[C@@H](N)CCCCN)ccc4OC)ccc3OC)ccc2OC)ccc1OC [Compound 115] | 0.7967 | 2.44 µg/mL | >20 µg/mL | 
COc1ccc(NC(=O)[C@H](CCCCN)NC(=O)c2cc(NC(=O)[C@H](CCCCN)NC(=O)c3cc(NC(=O)[C@H](CCCCN)NC(=O)c4cc(NC(=O)[C@@H](N)CCCCN)ccc4OC)ccc3OC)ccc2OC)cc1C(=O)O [Compound 96] | 5.567 | 3.59 µg/mL | inactive | 
COc1ccc(NC(=O)[C@H](CCCCCN)NC(=O)c2cc(NC(=O)[C@H](CCCCCN)NC(=O)c3cc(NC(=O)[C@H](CCCCCN)NC(=O)c4cc(NC(=O)[C@@H](N)CCCCCN)ccc4OC)ccc3OC)ccc2OC)cc1C(N)=O [Compound 98] | 0.1731 | 3.14 µg/mL | inactive | 
COc1ccc(NC(=O)[C@H](CCCNC(=N)N)NC(=O)c2cc(NC(=O)[C@H](CCCNC(=N)N)NC(=O)c3cc(NC(=O)[C@H](CCCNC(=N)N)NC(=O)c4cc(NC(=O)[C@@H](N)CCCNC(=N)N)ccc4OC)ccc3OC)ccc2OC)cc1C(N)=O [Compound 45] | 0.23 | 2.35 µg/mL | 2.61 µg/mL | 
COc1ccc(NC(=O)[C@@H](CCCNC(=N)N)NC(=O)CCCCNC(=N)N)cc1C(=O)N[C@H](CCCNC(=N)N)C(=O)Nc1ccc(OC)c(C(=O)N[C@H](CCCNC(=N)N)C(=O)Nc2ccc(OC)c(C(=O)N[C@H](CCCNC(=N)N)C(=O)Nc3ccc(OCCNC(=N)N)c(C(N)=O)c3)c2)c1 [Compound 27] | 0.10 | 2.19 µg/mL | 2.51 µg/mL | 
COc1ccc(NC(=O)[C@H](CCCCN)NC(=O)c2cc(NC(=O)[C@H](CCCCN)NC(=O)c3cc(NC(=O)[C@H](CCCCN)NC(=O)c4cc(NC(=O)[C@@H](N)CCCCN)ccc4OC)ccc3OC)ccc2OC)cc1C(=O)NCCC(=O)O [Compound 108] | 0.6085 | 1.50 µg/mL | 10.57 µg/mL | 
COc1ccc(NC(=O)[C@@H](CCCN)NC(=O)c2cc(NC(=O)[C@@H](CCCN)NC(=O)c3cc(NC(=O)[C@@H](CCCN)NC(=O)c4cc(NC(=O)[C@H](N)CCCN)ccc4OC)ccc3OC)ccc2OC)cc1C(N)=O [Compound 40] | 1.84 | 2.88 µg/mL | >90 µg/mL | 
COc1ccc(NC(=O)[C@@H](CCCNC(=N)N)NC(=O)c2cc(NC(=O)[C@@H](CCCNC(=N)N)NC(=O)c3cc(NC(=O)[C@H](CCCNC(N)=O)NC(=O)c4cc(NC(=O)[C@H](N)CCCNC(=N)N)ccc4OC)ccc3OC)ccc2OC)cc1C(N)=O [Compound 83] | 1.02 | 4.73 µg/mL | 14.79 µg/mL | 
COc1ccc(NC(=O)[C@@H](CCCNC(=N)N)NC(=O)c2cc(NC(=O)[C@@H](CCCNC(=N)N)NC(=O)c3cc(NC(=O)[C@H](C)NC(=O)[C@@H](CCCNC(=N)N)NC(=O)c4cc(NC(=O)[C@H](N)CCCNC(=N)N)ccc4OC)ccc3OC)ccc2OC)cc1C(N)=O [Compound 73] (H-[dR][3Abz(6-OMe)][dR]A[3Abz(6-OMe)][dR][3Abz(6-OMe)][dR]-{NH(3-CONH2-4-OMe-phenyl)}) | 2.49 | 5.16 µg/mL | 17.92 µg/mL | 
COc1ccc(NC(=O)[C@@H](CCCNC(=N)N)NC(=O)c2cc(NC(=O)[C@@H](CCCNC(=N)N)NC(=O)c3cc(NC(=O)[C@@H](CCCNC(=N)N)NC(=O)c4cc(NC(=O)[C@H](N)CCCNC(=N)N)ccc4OC)ccc3OCCNC(=N)N)ccc2OCCNC(=N)N)cc1C(N)=O [Compound 11] | 1.66 | 5.79 µg/mL | 7.04 µg/mL | 
COc1ccc(NC(=O)[C@H](CCCCN)NC(=O)c2cc(NC(=O)[C@H](CCCCN)NC(=O)c3cc(NC(=O)[C@H](CCCCN)NC(=O)c4cc(NC(=O)[C@@H](N)CCCCN)ccc4OC)ccc3OC)ccc2OC)cc1C(=O)Nc1cccc(C(=O)O)c1 [Compound 144] | 0.244 | 3.13 µg/mL | 1.051 µg/mL | 
COc1ccc(NC(=O)[C@H](CCCCN)NC(=O)c2cc(NC(=O)[C@H](CCCCN)NC(=O)c3cc(NC(=O)[C@H](CCCCN)NC(=O)c4cc(NC(=O)[C@@H](N)CCCCN)ccc4OC)ccc3OC)ccc2OC)cc1C(N)=O [Compound 90] | 0.093 | 0.9713 µg/mL | 0.272 µg/mL | 
COc1ccc(NC(=O)[C@H](CCCCN)NC(=O)c2cc(NC(=O)[C@H](CCCCN)NC(=O)c3cc(NC(=O)[C@H](CCCCN)NC(=O)c4ccc(NC(=O)[C@@H](N)CCCCN)cc4OC)ccc3OC)ccc2OC)cc1C(N)=O [Compound 129] | 0.3888 | 2.47 µg/mL | 7.996 µg/mL | 
COc1ccc(NC(=O)[C@H](CCCCN)NC(=O)c2cc(NC(=O)[C@H](CCCCN)NC(=O)c3cc(NC(=O)[C@H](CCCCN)NC(=O)c4cc(NC(=O)[C@@H](N)CCCCN)ccc4OC)ccc3OC)ccc2OC)cc1C(=O)N[C@@H](Cc1ccc(O)cc1)C(=O)O [Compound 112] | 0.257 | 2.71 µg/mL | 0.717 µg/mL | 
COc1ccc(NC(=O)[C@@H](CCCN)NC(=O)[C@@H](CCCN)NC(=O)c2cc(NC(=O)[C@@H](CCCN)NC(=O)c3cc(NC(=O)[C@@H](CCCNC(=N)N)NC(=O)c4cc(NC(=O)[C@H](N)CCCN)ccc4OC)ccc3OC)ccc2OC)cc1C(N)=O [Compound 46] (H-[dOrn][3Abz(6-OMe)][dR][3Abz(6-OMe)][dOrn][3Abz(6-OMe)][dOrn][dOrn]-{NH(3-CONH2-4-OMe-phenyl)}) | 13.76 | inactive | 76.88 µg/mL | 
COc1ccc(NC(=O)[C@@H](CCCN)NC(=O)c2cc(NC(=O)[C@@H](CCCNC(=N)N)NC(=O)c3cc(NC(=O)[C@@H](CCCNC(=N)N)NC(=O)c4cc(NC(=O)[C@H](N)CCCN)ccc4OC)ccc3OC)ccc2OC)cc1C(N)=O [Compound 30] |  |  |  | ENOX (FXa) EC50 (enoxaparin (ENOX)): 0.28 µg/mL; UFH (aPTT) EC50 [2]: 1.52 µg/mL; FONDAPX (FXa) EC50 (fondaparinux (FONDAPX)): 3.99 µg/mL
COc1ccc(NC(=O)[C@H](CCCNC(=N)N)NC(=O)c2cc(NC(=O)[C@H](CCCNC(=N)N)NC(=O)c3cc(NC(=O)[C@H](CCCNC(=N)N)NC(=O)c4cc(NC(=O)[C@H](C)NC(=O)CCCCNC(=N)N)ccc4OC)ccc3OC)ccc2OC)cc1C(N)=O [Compound 92] | 0.55 | 7.17 µg/mL | 1.40 µg/mL | 

Reference: patent US20110178104A1, “Anti-Heparin Compounds” (POLYMEDIX INC., priority 2010, published 2011)
